Measurements as given in US10487068B2, “Pyridazine derivatives as RORc modulators” (Genentech, Inc., priority 2015, dated 2019).

Target: T1, RORc ligand binding domain (Homo sapiens, UniProt P51449)
T1 sequence (P51449 269-508 limits assumed): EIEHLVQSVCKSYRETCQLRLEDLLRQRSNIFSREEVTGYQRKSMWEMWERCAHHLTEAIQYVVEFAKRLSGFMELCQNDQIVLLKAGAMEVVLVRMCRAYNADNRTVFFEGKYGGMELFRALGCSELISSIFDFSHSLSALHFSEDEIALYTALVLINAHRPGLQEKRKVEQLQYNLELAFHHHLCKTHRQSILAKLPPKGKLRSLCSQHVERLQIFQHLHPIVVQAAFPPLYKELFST
Assay: In Vitro RORc Ligand Binding Assay
Conditions: RORc IC50, radioligand 25-[3H]hydroxycholesterol 6 nM; 0.6 ug/mL RORc receptor; 3 h at 25° C.

In order of falling IC50:
1. Cc1nc(C#N)ncc1[C@@]12CC[C@@H](c3cc(-c4c(F)cccc4F)nnc31)C2(C)C [Example 227, 5-((5R,8S)-3-(2,6-difluorophenyl)-9,9-dimethyl-5,6,7,8-tetrahydro-5,8-methanocinnolin-8-yl)-4-methylpyrimidine-2-carbonitrile]  717 nM
2. CC1(C)[C@H]2CC[C@]1(c1cc(=O)[nH]cn1)c1nnc(-c3c(F)cccc3F)cc12 [Example 226, 6-((5R,8S)-3-(2,6-difluorophenyl)-9,9-dimethyl-5,6,7,8-tetrahydro-5,8-methanocinnolin-8-yl)pyrimidin-4(3H)-one]  363 nM
3. CC1(C)[C@H]2CC[C@]1(c1cc(C#N)nc(C#N)c1)c1nnc(-c3c(F)cccc3F)cc12 [Example 210, 4-((5R,8S)-3-(2,6-difluorophenyl)-9,9-dimethyl-5,6,7,8-tetrahydro-5,8-methanocinnolin-8-yl)pyridine-2,6-dicarbonitrile]  114 nM
4. CC1(C)[C@H]2CC[C@]1(c1cncc(NC(=O)NCCO)n1)c1nnc(-c3c(F)cccc3F)cc12 [Example 204, 1-(6-((5R,8S)-3-(2,6-difluorophenyl)-9,9-dimethyl-5,6,7,8-tetrahydro-5,8-methanocinnolin-8-yl)pyrazin-2-yl)-3-(2-hydroxyethyl)urea]  74.6 nM
5. Cc1nnc(-c2ccnc([C@@]34CC[C@@H](c5cc(-c6c(F)cccc6F)nnc53)C4(C)C)c2)[nH]1 [Example 223]  62.3 nM
6. CC1(C)[C@H]2CC[C@]1(c1nc(C(=O)NCCO)ncc1F)c1nnc(-c3c(F)cccc3F)cc12 [Example 218]  60.7 nM
7. CC1(C)[C@H]2CC[C@]1(c1nc(C(=O)NCCO)ncc1Cl)c1nnc(-c3c(F)cccc3F)cc12 [Example 230]  55.2 nM
8. CC1(C)[C@H]2CC[C@]1(c1ccnc(-n3cc(CO)cn3)n1)c1nnc(-c3c(F)cccc3F)cc12 [Example 238]  39.4 nM
9. CC(C)(O)c1nnc(-c2ncc(F)c([C@@]34CC[C@@H](c5cc(-c6c(F)cccc6F)nnc53)C4(C)C)n2)[nH]1 [Example 234]  36.6 nM
10. C[C@H](O)CNS(=O)(=O)c1cccc([C@@]23CC[C@@H](c4cc(-c5c(F)cccc5F)nnc42)C3(C)C)n1 [Example 201, 6-((5R,8S)-3-(2,6-difluorophenyl)-9,9-dimethyl-5,6,7,8-tetrahydro-5,8-methanocinnolin-8-yl)-N-((S)-2-hydroxypropyl)pyridine-2-sulfonamide]  33.4 nM
11. CC(C)(O)c1nnc(-c2cccc([C@@]34CC[C@@H](c5cc(-c6c(F)cccc6F)nnc53)C4(C)C)n2)[nH]1 [Example 214, 2-(5-(6-((5R,8S)-3-(2,6-difluorophenyl)-9,9-dimethyl-5,6,7,8-tetrahydro-5,8-methanocinnolin-8-yl)pyridin-2-yl)-4H-1,2,4-triazol-3-yl)propan-2-ol]  30.5 nM
12. Cc1ncn(-c2nccc([C@@]34CC[C@@H](c5cc(-c6c(F)cccc6F)nnc53)C4(C)C)n2)n1 [Example 212]  28.1 nM
13. CC1(C)[C@H]2CC[C@]1(c1ccnc(-n3cc(CCO)cn3)n1)c1nnc(-c3c(F)cccc3F)cc12 [Example 215]  28.1 nM
14. CC1(C)[C@H]2CC[C@]1(c1ccnc(-n3cnc(C(N)=O)n3)n1)c1nnc(-c3c(F)cccc3F)cc12 [Example 232]  27.9 nM
15. CC1(C)[C@H]2CC[C@]1(c1ccnc(-n3cnc(C#N)n3)n1)c1nnc(-c3c(F)cccc3F)cc12 [Example 220]  25.3 nM
16. CC(C)(O)c1nnc(-c2cncc([C@@]34CC[C@@H](c5cc(-c6c(F)cccc6F)nnc53)C4(C)C)n2)[nH]1 [Example 203, 2-(5-(6-((5R,8S)-3-(2,6-difluorophenyl)-9,9-dimethyl-5,6,7,8-tetrahydro-5,8-methanocinnolin-8-yl)pyrazin-2-yl)-4H-1,2,4-triazol-3-yl)propan-2-ol]  24.3 nM
17. C[C@@H](O)c1nnc(-c2cccc([C@@]34CC[C@@H](c5cc(-c6c(F)cccc6F)nnc53)C4(C)C)n2)[nH]1 [Example 221, (R)-1-(5-(6-((5R,8S)-3-(2,6-difluorophenyl)-9,9-dimethyl-5,6,7,8-tetrahydro-5,8-methanocinnolin-8-yl)pyridin-2-yl)-4H-1,2,4-triazol-3-yl)ethanol]  23.3 nM
18. C[C@@H](O)c1nnc(-c2cncc([C@@]34CC[C@@H](c5cc(-c6c(F)cccc6F)nnc53)C4(C)C)n2)[nH]1 [Example 225, (R)-1-(5-(6-((5R,8S)-3-(2,6-difluorophenyl)-9,9-dimethyl-5,6,7,8-tetrahydro-5,8-methanocinnolin-8-yl)pyrazin-2-yl)-4H-1,2,4-triazol-3-yl)ethanol]  21 nM
19. Cc1cc([C@@]23CC[C@@H](c4cc(-c5c(F)cccc5F)nnc42)C3(C)C)nc(C#N)n1 [Example 228]  15.3 nM
20. Cc1ncc(-c2cnc(C)c([C@@]34CC[C@@H](c5cc(-c6c(F)cccc6F)nnc53)C4(C)C)n2)o1 [Example 209, 5-(6-((5R,8S)-3-(2,6-difluorophenyl)-9,9-dimethyl-5,6,7,8-tetrahydro-5,8-methanocinnolin-8-yl)-5-methylpyrazin-2-yl)-2-methyloxazole]  15.2 nM
21. CC(C)(O)c1cn(-c2nccc([C@@]34CC[C@@H](c5cc(-c6c(F)cccc6F)nnc53)C4(C)C)n2)cn1 [Example 239]  13.9 nM
22. CC1(C)[C@H]2CC[C@]1(c1nc(C#N)ncc1Cl)c1nnc(-c3c(F)cccc3F)cc12 [Example 233]  13.8 nM
23. CC1(C)[C@H]2CC[C@]1(c1cccc(-n3cnnc3)n1)c1nnc(-c3c(F)cccc3F)cc12 [Example 216]  12.7 nM
24. C[C@H](O)c1nnc(-c2cncc([C@@]34CC[C@@H](c5cc(-c6c(F)cccc6F)nnc53)C4(C)C)n2)[nH]1 [Example 224, (S)-1-(5-(6-((5R,8S)-3-(2,6-difluorophenyl)-9,9-dimethyl-5,6,7,8-tetrahydro-5,8-methanocinnolin-8-yl)pyrazin-2-yl)-4H-1,2,4-triazol-3-yl)ethanol]  12.4 nM
25. C[C@@H](O)CNS(=O)(=O)c1cccc([C@@]23CC[C@@H](c4cc(-c5c(F)cccc5F)nnc42)C3(C)C)n1 [Example 200, 6-((5R,8S)-3-(2,6-difluorophenyl)-9,9-dimethyl-5,6,7,8-tetrahydro-5,8-methanocinnolin-8-yl)-N-((R)-2-hydroxypropyl)pyridine-2-sulfonamide]  11.7 nM
26. C[C@H](O)c1nnc(-c2cccc([C@@]34CC[C@@H](c5cc(-c6c(F)cccc6F)nnc53)C4(C)C)n2)[nH]1 [Example 222, (S)-1-(5-(6-((5R,8S)-3-(2,6-difluorophenyl)-9,9-dimethyl-5,6,7,8-tetrahydro-5,8-methanocinnolin-8-yl)pyridin-2-yl)-4H-1,2,4-triazol-3-yl)ethanol]  11 nM
27. CC1(C)[C@H]2CC[C@]1(c1cncc(-n3cc[nH]c3=O)n1)c1nnc(-c3c(F)cccc3F)cc12 [Example 202, 1-(6-((5R,8S)-3-(2,6-difluorophenyl)-9,9-dimethyl-5,6,7,8-tetrahydro-5,8-methanocinnolin-8-yl)pyrazin-2-yl)-1H-imidazol-2(3H)-one]  10.8 nM
28. CC1(C)[C@H]2CC[C@]1(c1cncc(-c3cn[nH]c3)n1)c1nnc(-c3c(F)cccc3F)cc12 [Example 205]  10.4 nM
29. CC1(C)[C@H]2CC[C@]1(c1cc(-c3cnc(CO)o3)ccn1)c1nnc(-c3c(F)cccc3F)cc12 [Example 235]  9.4 nM
30. CC1(C)[C@H]2CC[C@]1(c1ccnc(-n3cccn3)n1)c1nnc(-c3c(F)cccc3F)cc12 [Example 211]  8.8 nM
31. CC1(C)[C@H]2CC[C@]1(c1cncc(F)c1)c1nnc(-c3c(F)cccc3F)cc12 [Example 217, (5R,8S)-3-(2,6-difluorophenyl)-8-(5-fluoropyridin-3-yl)-9,9-dimethyl-5,6,7,8-tetrahydro-5,8-methanocinnoline]  7.4 nM
32. CC1(C)[C@H]2CC[C@]1(c1cncc(-c3cnc(CO)o3)n1)c1nnc(-c3c(F)cccc3F)cc12 [Example 206, (5-(6-((5R,8S)-3-(2,6-difluorophenyl)-9,9-dimethyl-5,6,7,8-tetrahydro-5,8-methanocinnolin-8-yl)pyrazin-2-yl)oxazol-2-yl)methanol]  6.7 nM
33. CC1(C)[C@H]2CC[C@]1(c1ccnc(-n3cnc(CO)c3)n1)c1nnc(-c3c(F)cccc3F)cc12 [Example 219]  6.7 nM
34. CC1(C)[C@H]2CC[C@]1(c1cncc(-n3ccnc3)n1)c1nnc(-c3c(F)cccc3F)cc12 [Example 231]  6.3 nM
35. CC1(C)[C@H]2CC[C@]1(c1cccc(-c3ccn[nH]3)n1)c1nnc(-c3c(F)cccc3F)cc12 [Example 213]  6.1 nM
36. CC1(C)[C@H]2CC[C@]1(c1cncc(-n3cnc(CO)c3)n1)c1nnc(-c3c(F)cccc3F)cc12 [Example 236]  5.8 nM
37. CC1(C)[C@H]2CC[C@]1(c1cccc(-c3cnc(CO)o3)n1)c1nnc(-c3c(F)cccc3F)cc12 [Example 207, (5-(6-((5R,8S)-3-(2,6-difluorophenyl)-9,9-dimethyl-5,6,7,8-tetrahydro-5,8-methanocinnolin-8-yl)pyridin-2-yl)oxazol-2-yl)methanol]  3.8 nM
38. Cc1cn(-c2nccc([C@@]34CC[C@@H](c5cc(-c6c(F)cccc6F)nnc53)C4(C)C)n2)cn1 [Example 208]  3.6 nM
39. CC1(C)[C@H]2CC[C@]1(c1cccc(-c3cn[nH]c3)n1)c1nnc(-c3c(F)cccc3F)cc12 [Example 229]  3 nM
40. CC1(C)[C@H]2CC[C@]1(c1cccc(C(O)CO)n1)c1nnc(-c3c(F)cccc3F)cc12 (stereo partly drawn) [Example 237, 1-(6-((5R,8S)-3-(2,6-difluorophenyl)-9,9-dimethyl-5,6,7,8-tetrahydro-5,8-methanocinnolin-8-yl)pyridin-2-yl)ethane-1,2-diol]  2.6 nM
